Experimental data as given in patent publication US10457677B2 (priority 2015, dated 2019).
Like-named read-outs stand apart in the source and are kept apart here.

Key:
[1] = molecular target: purified human recombinant ATM (ataxia telangiectasia mutated), full length (Homo sapiens (Human), UniProt Q13315); assay: ATM kinase assay - determination of ATM inhibition (IC50 ATM), TR-FRET; type: biochemical
How it was run: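 Full-length enzyme, expressed in a mammalian cell line, pre-incubated 15 min with inhibitor in 25 mM HEPES pH 8.0, 10 mM Mg(CH3COO)2, 1 mM MnCl2, 0,1% BSA, 0,01% Brij 35, 5 mM DTT. Full-length cmyc-p53 (Sf21-expressed) and ATP then added, 30-35 min at 22° C. EDTA stop; p53 S15 phosphorylation read by TR-FRET antibodies.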

[2] = tested on: phosphorylation of CHK2 (phospho-Thr68) in HCT116 cells; assay: Cellular pCHK2 assay: bleomycin-induced phosphorylation of CHK2 (phospho-Thr68), immunofluorescence high-content analysis; type: cell-based, human; settings: Homo sapiens, HCT-116, 4 h, read-out: IC50 (pCHK2)
Source text: For the identification of substances which inhibit the phosphorylation of the protein kinase CHK2 at the amino acid threonine 68, an immunofluorescence-based “high content” analysis assay was used in HCT116 cells.
In vitro cell-based immunofluorescence assay for the identification of inhibitors of bleomycin-induced phosphorylation of CHK2 (phospho-Thr68) in the human colon carcinoma cell line HCT116:
HCT116 cells are sown out in a defined cell density in 384-well plates in culture medium (DMEM high glucose, 2 mM GlutaMax, 1 mM Na pyruvate, 10% FCS) and incubated overnight at 37° C. and 10% of CO2. On the following day, the test substances are added in a defined concentration range (1 nM to 30 μM) in combination with 10 μM bleomycin, where the concentration of the solvent DMSO is kept constant at 0.5%. […] Parallel staining of DNA with propidium iodide enables determination of the cell count. The pCHK2 signal is detected using a high-content imager (Molecular Devices IMX Ultra) and automatic image analysis using the MetaXpress software belonging to the instrument. The number of cell nuclei which have a pCHK2 signal above a defined background is determined.

[3] = molecular target: mTOR (human) (Homo sapiens (Human), UniProt P42345); assay: mTOR (human) kinase assay, [γ-33P-ATP] filter assay; type: biochemical
Description: Furthermore, the effect, in particular inhibition, of other kinases and thus the selectivity of the compounds according to the invention can be determined with the aid of the following assay:
mTOR (human) was incubated with 50 mM HEPES pH 7.5, 1 mM EGTA, 0.01% Tween 20, 2 mg/ml of the substrate, 3 mM MnCl2 and [γ-^33P-ATP] (specific activity approximately 500 cpm/pmol, concentration as necessary). The reaction was initiated by addition of MgATP solution. After incubation at room temperature for 40 minutes, the reaction was stopped by addition of 3% phosphoric acid. 10 μl of the reaction solution were then transferred dropwise onto a P30 filtermat and washed three times for 5 min in 75 mM phosphoric acid and once in methanol, dried and evaluated by means of liquid scintillation counting.

[4] = molecular target: PI3K p110α/p85α (human) (Homo sapiens (Human), UniProt P42336); assay: PI3K p110α/p85α (human), non-radioactive assay (HTRF); type: biochemical; settings: for IC50: read-out: IC50 (PI3Kalpha); for ratio IC50 (ATM) vs PI3Kalpha, selectivity with respect to PI3Kalpha: as printed:
Description: PI3K p110α/p85α (Human), Non-radioactive Assay
(§1) PI3K p110α/p85α (human) was incubated in an assay buffer comprising 10 μM phosphati-dylinositol 4,5-bisphosphate and MgATP (concentration as necessary). The reaction was initiated by addition of MgATP solution. After incubation at room temperature for 40 minutes, the reaction was stopped by addition of a solution consisting of EDTA and biotinylated phosphatidylinositol 3,4,5-trisphosphate. Finally, the detection buffer, consisting of a europium-labelled anti-GST monoclonal antibody, a GST-labelled GRP1 PH domain and streptavidin allophycocyanin, was added. The plate was read out via homogeneous time-resolved fluorescence (HTRF) and the corresponding signals were evaluated via the formula HTRF=10000×(Em665nm/Em620nm).

[5] = molecular target: PI3K p110δ/p85α (human) (Homo sapiens (Human), UniProt O00329); assay: PI3K p110δ/p85α (human), non-radioactive assay (HTRF); type: biochemical; settings: for IC50: read-out: IC50 (PI3Kdelta); for ratio IC50 (ATM) vs PI3Kdelta, selectivity with respect to PI3Kdelta: as printed:
Description: PI3K p110δ/p85α (Human), Non-radioactive Assay
as §1, with “p110δ/p85α” for “p110α/p85α”, “After an” for “After”, “incubation time of 30 min” for “incubation”, “temperature,” for “temperature for 40 minutes,”

[6] = molecular target: PI3K (p120γ) (human) (Homo sapiens (Human), UniProt P48736); assay: PI3K (p120γ) (human), non-radioactive assay (HTRF); type: biochemical; settings: for IC50: read-out: IC50 (PI3Kgamma); for ratio IC50 (ATM) vs PI3Kgamma, selectivity with respect to PI3Kgamma: as printed:
Description: PI3K (p120γ) (Human), Non-radioactive Assay
as §1, with “(p120γ)” for “p110α/p85α”, “After an” for “After”, “incubation time of 30 min” for “incubation”, “temperature,” for “temperature for 40 minutes,”, “HTRF=10000×(Em665nm/Em620nm). • MgATP=magnesium 5′-O—[hydroxy({[(hydroxyphosphinato)oxy]phosphinato}oxy)phosphoryl]adenosine • MgCl2=magnesium dichloride • EGTA=ethylene glycol bis(aminoethyl ether) N,N,N′,N′-tetraacetic acid • Tween 20=polysorbate 20 Medicament/pharmaceutical Composition” for “HTRF=10000×(Em665nm/Em620nm).”

[7] = molecular target: PI3K p110β/p85α (human) (Homo sapiens (Human), UniProt P42338); assay: PI3K p110β/p85α (human), non-radioactive assay (HTRF); type: biochemical; settings: IC50 (ATM) at least 2000 times higher compared with IC50 (PI3Kbeta)
PI3K p110β/p85α (human), sequence (P42338 whole entry): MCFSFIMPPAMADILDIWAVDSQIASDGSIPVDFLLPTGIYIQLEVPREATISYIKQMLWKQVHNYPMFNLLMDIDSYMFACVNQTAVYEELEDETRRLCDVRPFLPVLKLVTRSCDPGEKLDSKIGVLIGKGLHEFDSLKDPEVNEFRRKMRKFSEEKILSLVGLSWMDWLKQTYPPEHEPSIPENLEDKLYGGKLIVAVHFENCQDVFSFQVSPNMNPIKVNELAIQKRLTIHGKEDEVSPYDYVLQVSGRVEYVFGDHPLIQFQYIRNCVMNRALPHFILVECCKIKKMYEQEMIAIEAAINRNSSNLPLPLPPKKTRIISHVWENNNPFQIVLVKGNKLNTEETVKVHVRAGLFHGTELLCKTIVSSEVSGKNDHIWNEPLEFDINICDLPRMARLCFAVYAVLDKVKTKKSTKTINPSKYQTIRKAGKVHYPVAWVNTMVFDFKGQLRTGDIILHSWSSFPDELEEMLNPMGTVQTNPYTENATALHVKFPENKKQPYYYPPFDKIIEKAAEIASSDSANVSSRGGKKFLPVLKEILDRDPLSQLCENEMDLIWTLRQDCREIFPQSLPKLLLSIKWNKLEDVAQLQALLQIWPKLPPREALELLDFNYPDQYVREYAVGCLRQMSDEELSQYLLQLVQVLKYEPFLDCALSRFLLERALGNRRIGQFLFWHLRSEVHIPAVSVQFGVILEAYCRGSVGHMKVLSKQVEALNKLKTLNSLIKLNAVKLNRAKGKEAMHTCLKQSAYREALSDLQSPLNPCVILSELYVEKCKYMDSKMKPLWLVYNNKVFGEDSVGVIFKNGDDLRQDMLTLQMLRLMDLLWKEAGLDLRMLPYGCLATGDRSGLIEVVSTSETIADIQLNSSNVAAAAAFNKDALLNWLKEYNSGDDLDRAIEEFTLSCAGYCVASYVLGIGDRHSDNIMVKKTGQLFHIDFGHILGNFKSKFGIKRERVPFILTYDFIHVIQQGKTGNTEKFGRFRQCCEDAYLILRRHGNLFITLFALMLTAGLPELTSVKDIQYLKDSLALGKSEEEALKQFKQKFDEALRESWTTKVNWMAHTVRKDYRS
PI3K p110β/p85α (human), sequence (P27986 whole entry partner): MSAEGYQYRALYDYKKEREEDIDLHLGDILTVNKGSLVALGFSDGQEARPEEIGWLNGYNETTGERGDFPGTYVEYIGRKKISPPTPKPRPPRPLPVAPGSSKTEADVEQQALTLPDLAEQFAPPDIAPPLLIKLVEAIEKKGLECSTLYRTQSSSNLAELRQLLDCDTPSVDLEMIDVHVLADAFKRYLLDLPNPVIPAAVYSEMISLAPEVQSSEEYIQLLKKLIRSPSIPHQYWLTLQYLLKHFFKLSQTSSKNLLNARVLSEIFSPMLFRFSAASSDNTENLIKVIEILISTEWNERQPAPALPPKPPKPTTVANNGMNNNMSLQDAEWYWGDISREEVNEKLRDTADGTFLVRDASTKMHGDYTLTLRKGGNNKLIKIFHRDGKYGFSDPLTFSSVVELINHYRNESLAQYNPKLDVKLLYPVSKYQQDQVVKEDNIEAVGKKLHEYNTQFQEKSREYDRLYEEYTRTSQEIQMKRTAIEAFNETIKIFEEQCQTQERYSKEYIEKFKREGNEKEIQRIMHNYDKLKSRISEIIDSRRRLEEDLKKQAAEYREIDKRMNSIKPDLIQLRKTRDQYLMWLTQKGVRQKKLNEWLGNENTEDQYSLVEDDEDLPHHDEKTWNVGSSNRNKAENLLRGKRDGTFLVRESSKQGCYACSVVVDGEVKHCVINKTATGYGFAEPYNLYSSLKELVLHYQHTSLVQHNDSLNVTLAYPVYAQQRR
Description: PI3K p110β/p85α (Human), Non-radioactive Assay
as §1, with “p110β/p85α” for “p110α/p85α”, “After an” for “After”, “incubation time of 30 min” for “incubation”, “temperature,” for “temperature for 40 minutes,”

PI3K (p120γ) (human), sequence (P48736 whole entry): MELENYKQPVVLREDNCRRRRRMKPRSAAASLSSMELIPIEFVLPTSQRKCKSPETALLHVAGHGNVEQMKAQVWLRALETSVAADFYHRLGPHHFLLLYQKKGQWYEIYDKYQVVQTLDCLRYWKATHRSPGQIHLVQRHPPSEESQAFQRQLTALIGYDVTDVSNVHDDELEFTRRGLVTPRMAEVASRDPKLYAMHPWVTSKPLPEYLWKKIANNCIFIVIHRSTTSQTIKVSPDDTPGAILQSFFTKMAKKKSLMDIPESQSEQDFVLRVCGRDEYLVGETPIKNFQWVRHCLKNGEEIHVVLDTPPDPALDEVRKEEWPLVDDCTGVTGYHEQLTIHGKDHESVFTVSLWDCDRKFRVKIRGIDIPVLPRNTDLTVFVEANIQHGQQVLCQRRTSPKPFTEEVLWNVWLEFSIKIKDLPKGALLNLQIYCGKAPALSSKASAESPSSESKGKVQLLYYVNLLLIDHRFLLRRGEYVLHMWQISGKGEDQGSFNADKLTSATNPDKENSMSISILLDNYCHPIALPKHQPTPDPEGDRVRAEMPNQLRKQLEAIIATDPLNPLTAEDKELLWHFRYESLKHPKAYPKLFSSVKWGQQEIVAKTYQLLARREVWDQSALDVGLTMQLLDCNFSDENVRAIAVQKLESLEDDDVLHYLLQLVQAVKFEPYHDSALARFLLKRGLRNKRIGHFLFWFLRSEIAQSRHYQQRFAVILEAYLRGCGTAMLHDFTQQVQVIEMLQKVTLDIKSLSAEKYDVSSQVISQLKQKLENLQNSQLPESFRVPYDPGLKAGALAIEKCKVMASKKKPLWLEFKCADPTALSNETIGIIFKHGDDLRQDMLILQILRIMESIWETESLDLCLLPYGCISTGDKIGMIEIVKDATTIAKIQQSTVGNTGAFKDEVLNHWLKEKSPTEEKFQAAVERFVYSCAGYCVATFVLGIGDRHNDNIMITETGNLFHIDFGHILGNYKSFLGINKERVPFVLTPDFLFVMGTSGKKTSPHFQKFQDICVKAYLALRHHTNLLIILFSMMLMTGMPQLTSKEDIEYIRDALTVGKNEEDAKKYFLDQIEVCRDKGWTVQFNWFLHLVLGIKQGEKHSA
PI3K p110δ/p85α (human), sequence (O00329 whole entry): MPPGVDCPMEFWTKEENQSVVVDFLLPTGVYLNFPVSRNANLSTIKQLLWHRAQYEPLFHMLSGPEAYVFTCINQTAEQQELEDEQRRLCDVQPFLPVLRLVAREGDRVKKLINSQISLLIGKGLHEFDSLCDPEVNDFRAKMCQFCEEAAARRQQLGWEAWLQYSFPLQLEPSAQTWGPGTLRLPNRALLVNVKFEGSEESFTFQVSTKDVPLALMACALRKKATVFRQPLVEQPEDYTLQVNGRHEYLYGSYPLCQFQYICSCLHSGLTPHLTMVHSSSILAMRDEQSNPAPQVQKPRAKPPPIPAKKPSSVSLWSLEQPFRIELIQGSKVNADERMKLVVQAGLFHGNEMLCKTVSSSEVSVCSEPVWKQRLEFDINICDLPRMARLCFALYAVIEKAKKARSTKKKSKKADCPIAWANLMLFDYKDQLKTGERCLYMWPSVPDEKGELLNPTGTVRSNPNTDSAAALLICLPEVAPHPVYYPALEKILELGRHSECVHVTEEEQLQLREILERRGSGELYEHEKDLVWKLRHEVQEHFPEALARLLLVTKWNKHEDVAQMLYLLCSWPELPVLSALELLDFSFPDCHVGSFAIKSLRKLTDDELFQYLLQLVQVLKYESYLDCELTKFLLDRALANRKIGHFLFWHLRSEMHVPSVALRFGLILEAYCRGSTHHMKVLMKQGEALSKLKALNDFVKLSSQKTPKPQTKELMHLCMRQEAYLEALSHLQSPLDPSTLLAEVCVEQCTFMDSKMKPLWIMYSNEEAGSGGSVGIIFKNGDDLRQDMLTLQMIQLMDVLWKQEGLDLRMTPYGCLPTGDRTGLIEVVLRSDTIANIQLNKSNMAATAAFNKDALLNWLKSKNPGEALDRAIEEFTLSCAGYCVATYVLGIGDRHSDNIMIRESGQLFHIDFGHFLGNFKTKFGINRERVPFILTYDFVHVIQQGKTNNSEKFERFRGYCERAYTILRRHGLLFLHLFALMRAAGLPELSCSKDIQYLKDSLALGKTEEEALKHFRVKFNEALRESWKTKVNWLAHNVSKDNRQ
PI3K p110δ/p85α (human), sequence (P27986 whole entry partner): as the sequence (P27986 whole entry partner) above
PI3K p110α/p85α (human), sequence (P42336 whole entry): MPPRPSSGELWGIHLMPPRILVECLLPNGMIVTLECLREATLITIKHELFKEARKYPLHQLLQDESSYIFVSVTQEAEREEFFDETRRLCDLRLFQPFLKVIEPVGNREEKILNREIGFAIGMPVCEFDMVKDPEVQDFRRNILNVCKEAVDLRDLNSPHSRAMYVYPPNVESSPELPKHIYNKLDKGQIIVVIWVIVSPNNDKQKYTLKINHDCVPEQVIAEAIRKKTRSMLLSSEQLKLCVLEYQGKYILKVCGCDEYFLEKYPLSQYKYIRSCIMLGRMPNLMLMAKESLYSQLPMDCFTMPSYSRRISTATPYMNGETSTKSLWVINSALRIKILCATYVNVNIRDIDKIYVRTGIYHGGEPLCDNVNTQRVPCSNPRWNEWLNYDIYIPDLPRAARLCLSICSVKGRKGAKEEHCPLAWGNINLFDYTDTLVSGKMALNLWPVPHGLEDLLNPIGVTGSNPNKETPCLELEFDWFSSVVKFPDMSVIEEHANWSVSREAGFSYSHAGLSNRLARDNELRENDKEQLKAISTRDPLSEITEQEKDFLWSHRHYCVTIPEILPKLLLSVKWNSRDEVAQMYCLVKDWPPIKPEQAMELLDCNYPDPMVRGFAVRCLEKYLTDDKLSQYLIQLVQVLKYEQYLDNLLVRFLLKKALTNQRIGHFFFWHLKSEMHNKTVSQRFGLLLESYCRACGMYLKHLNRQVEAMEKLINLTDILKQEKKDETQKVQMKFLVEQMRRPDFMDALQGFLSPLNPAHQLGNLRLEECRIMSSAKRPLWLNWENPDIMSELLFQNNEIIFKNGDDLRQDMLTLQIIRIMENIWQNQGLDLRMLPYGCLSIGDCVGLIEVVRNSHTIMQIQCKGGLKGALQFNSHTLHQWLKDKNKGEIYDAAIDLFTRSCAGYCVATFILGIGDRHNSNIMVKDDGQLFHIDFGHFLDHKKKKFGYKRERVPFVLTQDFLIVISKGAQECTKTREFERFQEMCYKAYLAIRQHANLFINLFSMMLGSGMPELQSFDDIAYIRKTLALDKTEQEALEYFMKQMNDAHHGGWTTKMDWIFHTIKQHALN
PI3K p110α/p85α (human), sequence (P27986 whole entry partner): as the sequence (P27986 whole entry partner) above

Structure (SMILES): COc1cc2ncc3c(c2cc1-c1cnn(C)c1)n(-c1c(F)cncc1F)c(=O)n3C [Compound Example 22, 1-(3,5-Difluoropyridin-4-yl)-7-methoxy-3-methyl-8-(1-methyl-1H-pyrazol-4-yl)-1,3-dihydroimidazo[4,5-c] quinolin-2-one]
- IC50 [1]: < 1 nM
- IC50 ([1]; 10 μM ATP, substrate p53): < 1 nM
- IC50 [2]: < 200 nM
- IC50 [3]: > 30000 nM
- IC50 [4]: > 30000 nM
- IC50 [5]: > 30000 nM
- IC50 [6]: > 30000 nM

Structure (SMILES): COc1cc2ncc3c(c2cc1-c1cn[nH]c1)n(-c1ccncc1OC)c(=O)n3C [Compound Example 32, 7-Methoxy-1-(3-methoxy-pyridin-4-yl)-3-methyl-8-(1H-pyrazol-4-yl)-1,3-dihydroimidazo[4,5-c]-quinolin-2-one]
- IC50 [1]: < 10 nM
- IC50 ([1]; 10 μM ATP, substrate p53): < 10 nM
- IC50 [2]: < 200 nM
- IC50 [3]: > 10000 nM
- IC50 [4]: > 30000 nM
- IC50 [5]: > 30000 nM
- IC50 [6]: > 30000 nM

Structure (SMILES): COc1cc2ncc3c(c2cc1-c1ccc2nc(C)[nH]c2c1)n(-c1c(F)cncc1OC)c(=O)n3C [compound 136, 1-(3-Fluoro-5-methoxy-pyridin-4-yl)-7-methoxy-3-methyl-8-(2-methyl-3H-benzoimidazol-5-yl)-1,3-dihydroimidazo[4,5-c]-quinolin-2-one]
- IC50 ([1]; 10 μM ATP, substrate p53): < 1 nM
- IC50 [2]: < 200 nM
- fold selectivity for ATM over PI3Kbeta (IC50 PI3Kbeta / IC50 ATM) [7]: at least 2000 times
- ratio IC50 (ATM) vs PI3Kgamma, selectivity with respect to PI3Kgamma [6]: at least 2000 times

Structure (SMILES): COc1ccc(-c2cc3c(cc2OC)ncc2c3n(-c3cn(C)nc3F)c(=O)n2C)cn1 [compound 159, 1-(3-Fluoro-1-methyl-1H-pyrazol-4-yl)-7-methoxy-8-(6-methoxypyridin-3-yl)-3-methyl-1,3-dihydroimidazo-[4,5-c]quinolin-2-one]
- IC50 ([1]; 10 μM ATP, substrate p53): < 10 nM
- IC50 [2]: 1000 to 2000 nM
- fold selectivity for ATM over PI3Kbeta (IC50 PI3Kbeta / IC50 ATM) [7]: at least 2000 times

Structure (SMILES): CCn1cc(-c2cc3c(cc2OC)ncc2c3n(-c3c(F)cncc3F)c(=O)n2C)cn1 [Compound Example 26, 1-(3,5-Difluoropyridin-4-yl)-8-(1-ethyl-1H-pyrazol-4-yl)-7-methoxy-3-methyl-1,3-dihydroimidazo[4,5-c] quinolin-2-one]
- IC50 [1]: < 1 nM
- IC50 ([1]; 10 μM ATP, substrate p53): < 1 nM
- IC50 [2]: < 200 nM
- IC50 [3]: > 30000 nM
- IC50 [4]: > 30000 nM
- IC50 [5]: > 30000 nM
- IC50 [6]: > 30000 nM

Structure (SMILES): CCc1cncc(C)c1-n1c(=O)n(C)c2cnc3cc(OC)c(-c4cnn(C)c4)cc3c21 [Compound Example 54, 1-(3-Ethyl-5-methylpyridin-4-yl)-7-methoxy-3-methyl-8-(1-methyl-1H-pyrazol-4-yl)-1,3-dihydroimidazo[4,5-c]-quinolin-2-one]
- IC50 [1]: < 10 nM
- IC50 ([1]; 10 μM ATP, substrate p53): < 10 nM
- IC50 [2]: 200 to 1000 nM
- IC50 [3]: > 30000 nM
- IC50 [4]: > 30000 nM
- IC50 [5]: > 30000 nM
- IC50 [6]: > 30000 nM

Structure (SMILES): CCc1cncc(F)c1-n1c(=O)n(C)c2cnc3cc(OC)c(-c4cn[nH]n4)cc3c21 [compound 125, 1-(3-Ethyl-5-fluoropyridin-4-yl)-7-methoxy-3-methyl-8-(2H-1,2,3-triazol-4-yl)-1,3-dihydroimidazo[4,5-c] quinolin-2-one]
- IC50 ([1]; 10 μM ATP, substrate p53): < 1 nM
- IC50 [2]: 200 to 1000 nM
- ratio IC50 (ATM) vs PI3Kalpha, selectivity with respect to PI3Kalpha [4]: at least 2000 times
- fold selectivity for ATM over PI3Kbeta (IC50 PI3Kbeta / IC50 ATM) [7]: at least 2000 times
- ratio IC50 (ATM) vs PI3Kdelta, selectivity with respect to PI3Kdelta [5]: at least 2000 times
- ratio IC50 (ATM) vs PI3Kgamma, selectivity with respect to PI3Kgamma [6]: at least 2000 times

Structure (SMILES): CCc1cncc(C)c1-n1c(=O)n(C)c2cnc3cc(OC)c(-c4cnn(CC)c4)cc3c21 [compound 61, 1-(3-Ethyl-5-methylpyridin-4-yl)-8-(1-ethyl-1H-pyrazol-4-yl)-7-methoxy-3-methyl-1,3-dihydroimidazo[4,5-c] quinolin-2-one]
- IC50 [1]: < 10 nM
- IC50 ([1]; 10 μM ATP, substrate p53): < 10 nM
- IC50 [2]: 1000 to 2000 nM
- IC50 [3]: > 30000 nM
- IC50 [4]: > 30000 nM
- IC50 [5]: > 30000 nM

Structure (SMILES): COc1cc2ncc3c(c2cc1-c1cnn(C)c1)n(-c1ncc(OCS(C)(=O)=O)cc1F)c(=O)n3C [compound 201, 1-(3-Fluoro-5-methyl-sulfonylmethoxypyridin-2-yl)-7-methoxy-3-methyl-8-(1-methyl-1H-pyrazol-4-yl)-1,3-dihydroimidazo[4,5-c]-quinolin-2-one]
- IC50 ([1]; 10 μM ATP, substrate p53): < 1 nM
- IC50 [2]: < 200 nM
- ratio IC50 (ATM) vs PI3Kalpha, selectivity with respect to PI3Kalpha [4]: at least 2000 times
- fold selectivity for ATM over PI3Kbeta (IC50 PI3Kbeta / IC50 ATM) [7]: at least 2000 times
- ratio IC50 (ATM) vs PI3Kdelta, selectivity with respect to PI3Kdelta [5]: at least 2000 times
- ratio IC50 (ATM) vs PI3Kgamma, selectivity with respect to PI3Kgamma [6]: at least 2000 times

Structure (SMILES): COc1cc2ncc3c(c2cc1-c1cn(C)nc1C)n(-c1c(C)cncc1F)c(=O)n3C [Compound Example 39, 8-(1,3-Dimethyl-1H-pyrazol-4-yl)-1-(3-fluoro-5-methyl-pyridin-4-yl)-7-methoxy-3-methyl-1,3-dihydroimidazo-[4,5-c]quinolin-2-one]
- IC50 [1]: < 1 nM
- IC50 ([1]; 10 μM ATP, substrate p53): < 1 nM
- IC50 [2]: 200 to 1000 nM
- IC50 [3]: > 30000 nM
- IC50 [4]: > 30000 nM
- IC50 [5]: > 30000 nM
- IC50 [6]: > 30000 nM

Structure (SMILES): COc1cc2ncc3c(c2cc1-c1cn[nH]c1)n(-c1ccncc1C)c(=O)n3C [Compound Example 19, 7-Methoxy-3-methyl-1-(3-methylpyridin-4-yl)-8-(1H-pyrazol-4-yl)-1,3-dihydro-imidazo[4,5-c]quinolin-2-one]
- IC50 [1]: < 10 nM
- IC50 ([1]; 10 μM ATP, substrate p53): < 10 nM
- IC50 [2]: < 200 nM
- IC50 [3]: > 5000 nM
- IC50 [4]: > 30000 nM
- IC50 [5]: > 30000 nM
- IC50 [6]: > 30000 nM
